Measurements as given in US6984403B2, “Azithromycin dosage forms with reduced side effects” (Pfizer Inc., priority 2003, dated 2006).
In brackets after ≈: the same amount, converted by molar mass. Where two headings read alike, the source gives them in different places.

Assays:
[1] = cited from earlier work
[2] = Azithromycin solubility as a function of pH; assay type: physicochemical
Experimental: The effective amount of alkaline agent that would suppress the dissolution of azithromycin in the stomach and thereby result in an improvement in the toleration of the immediate release (IR) formulation was calculated as follows. The IR formulation, without an alkalizing agent, releases about 92% of the drug in 30 minutes at pH 6.0 as described in Example 5, i.e., 3.07% per minute at pH 6.0. To improve the toleration, the azithromycin dissolution rate must be reduced, preferably to a rate that will release only about 1.5 gA, or less, in the first 30 minutes or no greater than 2.5% per minute. It was assumed that the rate of drug dissolution from an IR formulation is directly proportional to the solubility of azithromycin, which is dependent on the pH as shown in Table 10.

[3] = taken simultaneously with antacids; cited from earlier work
[4] = 3,995 human patients, all dose levels combined, cited from earlier work
[5] = adult humans, single 1 gram dose, oral suspension
[6] = adult humans, single 2 gram, oral suspension
[7] = pediatric humans, oral suspension 10 mg/kg on Day 1 and 5 mg/kg on days 2–5
[8] = pediatric humans, single 30 mg/kg dose, oral suspension

solubility ([2]; aqueous buffer, pH 6.0, obtained by interpolation from Table 10, read-out: azithromycin solubility at pH 6.0): 390 mg/mL (≈ 521 mM) | solubility ([2]; pH 2.88, aqueous buffer, read-out: Azithromycin Solubility): 440 mg/mL (≈ 587 mM) | solubility ([2]; pH 4.09, aqueous buffer, read-out: Azithromycin Solubility): 430 mg/mL (≈ 574 mM) | solubility ([2]; pH 6.15, aqueous buffer, read-out: Azithromycin Solubility): 380 mg/mL (≈ 507 mM) | solubility ([2]; pH 6.42, aqueous buffer, read-out: Azithromycin Solubility): 310 mg/mL (≈ 414 mM) | solubility ([2]; pH 6.61, aqueous buffer, read-out: Azithromycin Solubility): 250 mg/mL (≈ 334 mM) | solubility ([2]; pH 6.65, aqueous buffer, read-out: Azithromycin Solubility): 140 mg/mL (≈ 187 mM) | solubility ([2]; pH 6.75, aqueous buffer, read-out: Azithromycin Solubility): 120 mg/mL (≈ 160 mM) | solubility ([2]; pH 6.87, aqueous buffer, read-out: Azithromycin Solubility): 36 mg/mL (≈ 48.1 mM) | solubility ([2]; pH 7.41, aqueous buffer, read-out: Azithromycin Solubility): 5 mg/mL (≈ 6.68 mM) | solubility ([2]; pH 8.02, aqueous buffer, read-out: Azithromycin Solubility): 0.5 mg/mL (≈ 0.668 mM) | solubility ([2]; pH 8.85, aqueous buffer, read-out: Azithromycin Solubility): 0.02 mg/mL (≈ 0.0267 mM) | solubility ([2]; pH 10.34, aqueous buffer, read-out: Azithromycin Solubility): 0.005 mg/mL (≈ 0.00668 mM)
Structure (SMILES): CC[C@H]1OC(=O)[C@H](C)[C@@H](O[C@H]2C[C@@](C)(OC)[C@@H](O)[C@H](C)O2)[C@H](C)[C@@H](O[C@@H]2O[C@H](C)C[C@H](N(C)C)[C@H]2O)[C@](C)(O)C[C@@H](C)CN(C)[C@H](C)[C@@H](O)[C@]1(C)O [Azithromycin, azithromycin]
reported incidence of abdominal pain [1, 5]: 5% | reported incidence of diarrhea/loose stools [1, 5]: 7% | reported incidence of nausea [1, 5]: 5% | reported incidence of vomiting [1, 5]: 2% | reported incidence of abdominal pain [1, 6]: 7% | reported incidence of diarrhea/loose stools [1, 6]: 14% | reported incidence of vomiting [1, 6]: 7% | reported incidence of abdominal pain [1, 7]: 2% | reported incidence of diarrhea/loose stools [1, 7]: 4% | reported incidence of vomiting [1, 7]: 2% | reported incidence of diarrhea/loose stools [1, 8]: 6.4% | reported incidence of nausea [1, 8]: 1.7% | reported incidence of vomiting [1, 8]: 4% | reduction of azithromycin maximum serum concentration Cmax by antacids [3]: 24% | patients reporting GI side effects ([4]; oral): 9.6% | frequency of abdominal pain [4]: 2.5% | frequency of diarrhea [4]: 3.6% | frequency of nausea [4]: 2.6%
